Data as given in patent US20140248361A1, “HERBAL EXTRACT COMPOSITION AND A PROCESS THEREOF” (PRASAN SOLUTIONS (INDIA) PVT LTD, priority 2012, published 2014).
Values belong to the compound of their own block, whether it stands above or below them.

Legend:
[1] = Totox value of palm oil on storage; conditions: for days after which Totox value crosses threshold limit: threshold 30
Procedure: (§2) The shelf life of oil is studied by carrying out chemical analysis, which include studying peroxide value (represents extent of primary oxidation), Para-anisidine value (represents extent of secondary oxidation) and totox value (reflects total oxidation of oil). These parameters are determined for 1 kg of untreated oil and treated oil at every 15 days interval for samples stored at ambient temperature and at every 7 days interval for samples stored at 50° C. The treated oil being, the oil upon addition of 200 ppm of TBHQ (sample-A), 200 ppm of BHA (sample-B), 200 ppm and 500 ppm of pulverized green tea extract with 90% polyphenol (sample-C), 200 ppm and 500 ppm of rosemary extract (sample-D), 200 ppm and 500 ppm of green tea extract after cryogenic grinding (sample-E), 200 ppm and 500 ppm of crude green tea extract (sample-F) and PRESOL at 200 ppm and 500 ppm. The untreated oil is the control sample without any antioxidant.
(§3) The threshold limit for per oxide value under which oil can be used for safe consumption is 10 meq of O2/Kg oil. Similarly, the threshold limit of para-anisidine value and Totox value is 10 and 30, respectively.

[2] = Para-anisidine value of palm oil on storage
Procedure: as §2, §3

[3] = Oil stability index (Rancimat) of palm oil; conditions: 200 ppm
Procedure: (§4) As used herein, ‘Oil Stability Index (OSI)’ is an American Oil Chemists Society (AOCS) approved method that determines the relative resistance of fat and oil samples to oxidation, which is defined by the following equation—
(§5) The oil stability index is determined using the Metrohm's Rancimat (Metrohm 743 Rancimat).
4.0 g of palm oil is weighed into the reaction vessel. The reaction vessel filled with oil is placed in a heating block. The temperature of the block is maintained at 100° C., 120° C. and 140° C., respectively. The oil is heated at the said temperatures, followed by passing air at a flow rate of 20 L/h. Flowing of air through the oil produces peroxides during primary oxidation and organic acids having low molecular weight, aldehydes and ketones with typical rancid odor during the secondary oxidation phase. These compounds are conveyed by the air flow into measurement vessel containing distilled water where conductivity is being checked continuously by sensor.

[4] = Frying cycle analysis of palm oil (total polar compounds); conditions: palm oil
Procedure: (§1) Palm oil and sunflower oil with antioxidants added to it are obtained from a local refinery. Frying studies are carried out with control oil and by adding TBHQ (Sample A), BHA (Sample B), GT Pulverized (Sample C), ROS (Sample D), GT Cryo grinded (Sample E), GT Crude Extract (Sample F) and PRESOL, respectively to the oils. Experiments are carried out a concentration of 200 ppm and 500 ppm. Fresh potatoes of less reduced sugar content variety are used throughout the experiment which is purchased form a local supermarket. Oil samples are withdrawn from the fryer at the end of every day and stored at −4° C. until it is tested for quality parameters viz, total polar compounds. Polar compounds present in oil and fats are measured by column chromatography using standard method, ES ISO 8420:2012.

[5] = Frying cycle analysis of sunflower oil (total polar compounds); conditions: for Total Polar compounds of sunflower oil: 200 ppm
Procedure: as §1

Shelf life of canola oil = conditions: 200 ppm
Procedure: D. Determination of Shelf Life of Canola Oil in the Presence of PRESOL • Shelf life of canola oil is analyzed upon adding 200 ppm of TBHQ (sample-A), BHA (sample-B), green tea extract with 90% polyphenol (sample-C), rosemary extract (sample-D), green tea extract after cryogenic grinding (sample-E), and PRESOL, respectively to canola oil.

[6] = Oil stability index (Rancimat) of almond oil; conditions: for Induction Time: in h
Procedure: as §5
4.0 g of almond oil is weighed into the reaction vessel. The reaction vessel filled with oil is placed in a heating block. The temperature of the block is maintained at 100° C., 120° C. and 140° C., respectively. The oil is heated at the said temperatures, followed by passing air at a flow rate of 20 L/h. […] These compounds are conveyed by the air flow into measurement vessel containing distilled water where conductivity is being checked continuously by sensor.
The above experiment is repeated by adding 200 ppm of BHA (sample-B), 200 ppm of BHT (sample-B1), 500 ppm of alpha tocopherol (sample-B2) and PRESOL at 200 ppm, 500 ppm and 1000 ppm, respectively to almond oil. From the above experiment, oxidative stability index of untreated oil (control) and treated oil is calculated and the below table illustrates the induction time and the obtained oxidative stability.

[7] = Estimation of shelf life of palm oil (Rancimat temperature extrapolation); conditions: 200 ppm
Description: (§6) This is an aid for estimating the shelf life of oils and fats. The extrapolation makes use of the relationship between the measured induction time and the temperature given by van't Hoff's law. Several measurements are made at different temperatures and then extrapolated to the storage temperature. The values so obtained allow estimation of the storage stability of the oil or fat containing PRESOL.

[8] = Oil stability index (Rancimat) of sunflower oil; conditions: 200 ppm
Procedure: as §4, §5
4.0 g of sunflower oil is weighed into the reaction vessel. The reaction vessel filled with oil is placed in a heating block. The temperature of the block is maintained at 80° C., 100° C. and 120° C., respectively. The oil is heated at the said temperatures, followed by passing air at a flow rate of 20 L/h. Flowing of air through the oil produces peroxides during primary oxidation and organic acids having low molecular weight, aldehydes and ketones with typical rancid odor during the secondary oxidation phase. These compounds are conveyed by the air flow into measurement vessel containing distilled water where conductivity is being checked continuously by sensor.

[9] = Oil stability index (Rancimat) of apricot oil; conditions: for Induction Time at 200 ppm: in h
Procedure: as §4, §5
4.0 g of apricot oil is weighed into the reaction vessel. The reaction vessel filled with oil is placed in a heating block. The temperature of the block is maintained at 100° C., 120° C. and 140° C., respectively. The oil is heated at the said temperatures, followed by passing air at a flow rate of 20 L/h. Flowing of air through the oil produces peroxides during primary oxidation and organic acids having low molecular weight, aldehydes and ketones with typical rancid odor during the secondary oxidation phase. These compounds are conveyed by the air flow into measurement vessel containing distilled water where conductivity is being checked continuously by sensor.
The above experiment is repeated by adding 200 ppm of BHA (sample-B), 200 ppm of BHT (sample-B1), 500 ppm of alpha tocopherol (sample-B2) and PRESOL at 200 ppm, 500 ppm and 1000 ppm, respectively to apricot oil.

[10] = Effect of particle size on antioxidant activity (Rancimat induction time) in sunflower oil; conditions: 200 ppm in sunflower oil; Rancimat 100° C.
Procedure: (§7) Effect of particle size analysis on antioxidant activity is analysed with the help of Rancimat (Metrohm 743) which gives oxidative stability index based on the induction time (h). Rancimat analysis is carried out at two different temperature in order to set relationship between induction time and temperature of the studies.
(§8) In this, we have analyzed the particle size of samples with the help of Particle Size Analyzer (Microtrac, S3500) and its antioxidant activity with the help of Rancimat (Metrohm 743).

[11] = Peroxide value of palm oil on storage
Procedure: as §2, §3

[12] = Estimation of shelf life of sunflower oil (Rancimat temperature extrapolation); conditions: 200 ppm
Description: as §6

[13] = Effect of particle size on antioxidant activity (Rancimat induction time) in palm oil; conditions: 200 ppm in palm oil; Rancimat 120° C.
Procedure: as §7, §8

[14] = Peroxide value of fish oil at 10° C.
Procedure: The shelf life is calculated using Rancimat shelf life calculator. The shelf life of oil is studied by carrying out chemical analysis, which include studying peroxide value (represents extent of primary oxidation), Para-anisidine value (represents extent of secondary oxidation) and totox value (reflects total oxidation of oil). […] […] The untreated oil is the control sample without any antioxidant.

[15] = Oil stability index (Rancimat) of fish oil; conditions: 200 ppm; for Induction Time: in h
Procedure: 4.0 g of fish oil is weighed into the reaction vessel. […] The temperature of the block is maintained at 60° C., 70° C. and 80° C., respectively.

[16] = ambient temperature, day 0, 200 ppm
[17] = ambient temperature, day 15, 200 ppm
[18] = ambient temperature, day 30, 200 ppm
[19] = ambient temperature, day 45, 200 ppm
[20] = ambient temperature, day 60, 200 ppm
[21] = ambient temperature, day 75, 200 ppm
[22] = ambient temperature, day 90, 200 ppm
[23] = ambient temperature, day 105, 200 ppm
[24] = ambient temperature, day 120, 200 ppm
[25] = ambient temperature, day 135, 200 ppm
[26] = ambient temperature, day 150, 200 ppm
[27] = ambient temperature, day 165, 200 ppm
[28] = ambient temperature, day 180, 200 ppm

SMILES: COc1ccc(O)c(C(C)(C)C)c1 [Sample B, butylated hydroxyanisole]
days after which Totox value crosses threshold limit ([1]; 50° C.): 180 days
Totox value [1, 16]: 3.497
Totox value [1, 17]: 4.338
Totox value [1, 18]: 6.561
Totox value [1, 19]: 8.268
Totox value [1, 20]: 10.827
Totox value [1, 21]: 12.449
Totox value [1, 22]: 13.181
Totox value [1, 23]: 14.088
Totox value [1, 24]: 16.114
Totox value [1, 25]: 19.368
Totox value [1, 26]: 20.994
Totox value [1, 27]: 26.783
Totox value [1, 28]: 29.993
days after which Totox value crosses threshold limit ([1]; ambient temperature): 180 days
Para-anisidine value ([2]; 50° C., day 0, 200 ppm): 2.69
Para-anisidine value ([2]; 50° C., day 7, 200 ppm): 3.186
Para-anisidine value ([2]; 50° C., day 15, 200 ppm): 4.011
Para-anisidine value ([2]; 50° C., day 22, 200 ppm): 4.204
Para-anisidine value ([2]; 50° C., day 30, 200 ppm): 5.542
Para-anisidine value ([2]; 50° C., day 37, 200 ppm): 5.617
Para-anisidine value ([2]; 50° C., day 45, 200 ppm): 5.794
Para-anisidine value ([2]; 50° C., day 52, 200 ppm): 5.827
Para-anisidine value ([2]; 50° C., day 60, 200 ppm): 6.165
Para-anisidine value ([2]; 50° C., day 67, 200 ppm): 6.22
Para-anisidine value ([2]; 50° C., day 75, 200 ppm): 6.269
Para-anisidine value ([2]; 50° C., day 82, 200 ppm): 6.503
Para-anisidine value ([2]; 50° C., day 90, 200 ppm): 6.657
Para-anisidine value [2, 16]: 2.566
Para-anisidine value [2, 17]: 2.602
Para-anisidine value [2, 18]: 3.18
Para-anisidine value [2, 19]: 2.899
Para-anisidine value [2, 20]: 2.759
Para-anisidine value [2, 21]: 2.952
Para-anisidine value [2, 22]: 3.113
Para-anisidine value [2, 23]: 3.455
Para-anisidine value [2, 24]: 3.499
Para-anisidine value [2, 25]: 3.593
Para-anisidine value [2, 26]: 3.759
Para-anisidine value [2, 27]: 4.169
Para-anisidine value [2, 28]: 4.493
Induction Time ([3]; 100° C.): 43.33 h
Oxidative Stability Index (OSI) ([3]; 100° C.): 1.04
Induction Time ([3]; 120° C.): 9.88 h
Oxidative Stability Index (OSI) ([3]; 120° C.): 1.02
Induction Time ([3]; 140° C.): 2.51 h
Oxidative Stability Index (OSI) ([3]; 140° C.): 1.02
frying cycle after which threshold limit for total polar compounds is crossed [4]: 40 cycle
Total Polar compounds of sunflower oil ([5]; frying cycle 0): 3.515
Total Polar compounds of sunflower oil ([5]; frying cycle 8): 6.958
Total Polar compounds of sunflower oil ([5]; frying cycle 16): 14.124
Total Polar compounds of sunflower oil ([5]; frying cycle 24): 20.105
Total Polar compounds of sunflower oil ([5]; frying cycle 32): 26.085
Total Polar compounds of sunflower oil ([5]; frying cycle 40): 31.692
frying cycle after which threshold limit for total polar compounds is crossed ([5]; sunflower oil): 40 cycle
Shelf Life (No. Of Days) (Shelf life of canola oil): 37 days
Oxidative Stability Index (OSI) ([6]; 100° C., 200 ppm): 1.14
Induction Time ([6]; 100° C., 200 ppm): 25.14
Oxidative Stability Index (OSI) ([6]; 120° C., 200 ppm): 1.21
Induction Time ([6]; 120° C., 200 ppm): 6.11
Oxidative Stability Index (OSI) ([6]; 140° C., 200 ppm): 1.11
Induction Time ([6]; 140° C., 200 ppm): 1.52
Shelf Life (days) at 30° C. [7]: 260.9 days
Induction Time ([8]; 80° C.): 50.39 h
Oxidative Stability Index (OSI) ([8]; 80° C.): 1.38
Induction Time ([8]; 100° C.): 13.33 h
Oxidative Stability Index (OSI) ([8]; 100° C.): 1.43
Induction Time ([8]; 120° C.): 2.64 h
Oxidative Stability Index (OSI) ([8]; 120° C.): 1.12
Oxidative Stability Index (OSI) ([9]; 100° C., 200 ppm): 1.08
Induction Time at 200 ppm ([9]; 100° C., 200 ppm): 29.16
Oxidative Stability Index (OSI) ([9]; 120° C., 200 ppm): 1.13
Induction Time at 200 ppm ([9]; 120° C., 200 ppm): 6.66
Oxidative Stability Index (OSI) ([9]; 140° C., 200 ppm): 1.06
Induction Time at 200 ppm ([9]; 140° C., 200 ppm): 1.57
Induction Period (h) of SFO 100° C. [10]: 13.33 h
Peroxide value ([11]; 50° C., day 0, 200 ppm): 0.482
Peroxide value ([11]; 50° C., day 7, 200 ppm): 4.735
Peroxide value ([11]; 50° C., day 15, 200 ppm): 9.973
Peroxide value ([11]; 50° C., day 22, 200 ppm): 13.062
Peroxide value ([11]; 50° C., day 30, 200 ppm): 16.45
Peroxide value ([11]; 50° C., day 37, 200 ppm): 35.595
Peroxide value ([11]; 50° C., day 45, 200 ppm): 60.884
Peroxide value ([11]; 50° C., day 52, 200 ppm): 51.15
Peroxide value ([11]; 50° C., day 60, 200 ppm): 42.269
Peroxide value ([11]; 50° C., day 67, 200 ppm): 34.974
Peroxide value ([11]; 50° C., day 75, 200 ppm): 25.576
Peroxide value ([11]; 50° C., day 82, 200 ppm): 11.31
Peroxide value ([11]; 50° C., day 90, 200 ppm): 15.231
Peroxide value [11, 16]: 0.465
Peroxide value [11, 17]: 0.868
Peroxide value [11, 18]: 1.691
Peroxide value [11, 19]: 2.684
Peroxide value [11, 20]: 4.034
Peroxide value [11, 21]: 4.748
Peroxide value [11, 22]: 5.034
Peroxide value [11, 23]: 5.316
Peroxide value [11, 24]: 6.307
Peroxide value [11, 25]: 7.887
Peroxide value [11, 26]: 8.617
Peroxide value [11, 27]: 11.307
Peroxide value [11, 28]: 12.75
days after which peroxide value crosses threshold limit ([11]; ambient temperature, threshold 10 meq of O2/Kg oil): 165 days
Shelf Life (days) at 30° C. [12]: 87.2 days
Induction Period (h) of PO at 120° C. [13]: 9.88 h

SMILES: Cc1cc(C(C)(C)C)c(O)c(C(C)(C)C)c1 [Sample B1, butylated hydroxyl toluene]
Induction Time ([6]; 100° C., 200 ppm): 24.98
Induction Time ([6]; 120° C., 200 ppm): 5.89
Induction Time ([6]; 140° C., 200 ppm): 1.48
Induction Time at 200 ppm ([9]; 100° C., 200 ppm): 26.96
Induction Time at 200 ppm ([9]; 120° C., 200 ppm): 5.93
Induction Time at 200 ppm ([9]; 140° C., 200 ppm): 1.49

Oxidative Stability Index (OSI) ([6]; 100° C., 500 ppm): 1.11
Oxidative Stability Index (OSI) ([6]; 120° C., 500 ppm): 1.13
Oxidative Stability Index (OSI) ([6]; 140° C., 500 ppm): 1.04
Oxidative Stability Index (OSI) ([15]; 60° C.): 2.81
Oxidative Stability Index (OSI) ([15]; 70° C.): 2.76
Oxidative Stability Index (OSI) ([15]; 80° C.): 2.76
Oxidative Stability Index (OSI) ([9]; 100° C., 500 ppm): 0.82
Oxidative Stability Index (OSI) ([9]; 120° C., 500 ppm): 0.86
Oxidative Stability Index (OSI) ([9]; 140° C., 500 ppm): 0.89
SMILES: Cc1c(C)c2c(c(C)c1O)CC[C@@](C)(CCC[C@H](C)CCC[C@H](C)CCCC(C)C)O2 [Sample B2, alpha tocopherol]
days after which peroxide value crosses the threshold limit of 8 meq/kg ([14]; 200 ppm): 21 days
Peroxide value ([14]; day 0, 200 ppm): 1.74
Peroxide value ([14]; day 3, 200 ppm): 2.13
Peroxide value ([14]; day 6, 200 ppm): 3.33
Peroxide value ([14]; day 9, 200 ppm): 4.71
Peroxide value ([14]; day 12, 200 ppm): 5.41
Peroxide value ([14]; day 15, 200 ppm): 6.82
Peroxide value ([14]; day 18, 200 ppm): 7.84
Peroxide value ([14]; day 21, 200 ppm): 9.02
Peroxide value ([14]; day 24, 200 ppm): 10.32
Peroxide value ([14]; day 27, 200 ppm): 12.02
Peroxide value ([14]; day 30, 200 ppm): 13.01
Peroxide value ([14]; day 33, 200 ppm): 15.44
Peroxide value ([14]; day 36, 200 ppm): 17.16
Peroxide value ([14]; day 39, 200 ppm): 18.94
Peroxide value ([14]; day 42, 200 ppm): 20.86
Peroxide value ([14]; day 45, 200 ppm): 25.09
Peroxide value ([14]; day 48, 200 ppm): 28.71
Peroxide value ([14]; day 51, 200 ppm): 33.89
Peroxide value ([14]; day 54, 200 ppm): 39.01
Peroxide value ([14]; day 57, 200 ppm): 44.14
Peroxide value ([14]; day 60, 200 ppm): 49.22
Peroxide value ([14]; day 63, 200 ppm): 50.06
Peroxide value ([14]; day 66, 200 ppm): 51.22
Peroxide value ([14]; day 69, 200 ppm): 50.85
Peroxide value ([14]; day 72, 200 ppm): 50.13
Peroxide value ([14]; day 75, 200 ppm): 49.72
Induction Time ([6]; 100° C., 500 ppm): 24.51
Induction Time ([6]; 120° C., 500 ppm): 5.73
Induction Time ([6]; 140° C., 500 ppm): 1.43
Induction Time ([15]; 60° C.): 27.68
Induction Time ([15]; 70° C.): 13.74
Induction Time ([15]; 80° C.): 6.78
Induction Time at 200 ppm ([9]; 100° C., 500 ppm): 22.06
Induction Time at 200 ppm ([9]; 120° C., 500 ppm): 5.06
Induction Time at 200 ppm ([9]; 140° C., 500 ppm): 1.32
